{
  "source": "patent US20210346403A1",
  "about": "“USE OF COMPOUNDS THAT TARGET MINERALOCORTICOID RECEPTORS FOR TREATING COVID-19” (priority 2020, published 2021)",
  "origin": "cited, not measured here",
  "key": {"progestin receptor": {"target": "T1, progestin receptor (Homo sapiens, UniProt P06401)", "T1 sequence (P06401 1-933)": "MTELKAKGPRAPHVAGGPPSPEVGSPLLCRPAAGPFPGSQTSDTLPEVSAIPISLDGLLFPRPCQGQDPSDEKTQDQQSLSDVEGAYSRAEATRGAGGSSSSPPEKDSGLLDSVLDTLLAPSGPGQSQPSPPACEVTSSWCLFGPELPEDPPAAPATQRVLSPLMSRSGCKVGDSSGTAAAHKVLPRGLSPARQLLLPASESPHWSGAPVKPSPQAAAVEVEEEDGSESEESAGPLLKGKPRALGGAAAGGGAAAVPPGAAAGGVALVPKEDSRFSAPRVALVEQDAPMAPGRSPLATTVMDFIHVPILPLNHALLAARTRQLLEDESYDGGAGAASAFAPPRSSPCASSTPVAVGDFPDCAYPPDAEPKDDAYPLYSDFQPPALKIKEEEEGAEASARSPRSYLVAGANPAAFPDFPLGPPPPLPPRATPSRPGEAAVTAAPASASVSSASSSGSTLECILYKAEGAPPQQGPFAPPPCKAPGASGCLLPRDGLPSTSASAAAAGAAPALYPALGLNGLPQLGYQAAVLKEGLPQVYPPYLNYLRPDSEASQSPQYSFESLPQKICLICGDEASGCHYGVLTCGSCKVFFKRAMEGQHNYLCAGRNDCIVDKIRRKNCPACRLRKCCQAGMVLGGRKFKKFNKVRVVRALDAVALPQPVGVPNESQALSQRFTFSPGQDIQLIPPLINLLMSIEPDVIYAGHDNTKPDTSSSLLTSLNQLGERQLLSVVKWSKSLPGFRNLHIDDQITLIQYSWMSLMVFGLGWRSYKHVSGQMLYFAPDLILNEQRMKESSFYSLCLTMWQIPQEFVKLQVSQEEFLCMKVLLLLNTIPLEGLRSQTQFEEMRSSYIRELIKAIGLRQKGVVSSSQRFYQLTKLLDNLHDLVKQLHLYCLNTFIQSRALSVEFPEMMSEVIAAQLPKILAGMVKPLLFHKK", "conditions": "fold lower affinity; comparator not stated explicitly (spironolactone or MR implied)"}, "[1]": {"target": "T2, mineralocorticoid receptor (MR) (Homo sapiens, UniProt P08235)", "T2 sequence (P08235 1-984)": "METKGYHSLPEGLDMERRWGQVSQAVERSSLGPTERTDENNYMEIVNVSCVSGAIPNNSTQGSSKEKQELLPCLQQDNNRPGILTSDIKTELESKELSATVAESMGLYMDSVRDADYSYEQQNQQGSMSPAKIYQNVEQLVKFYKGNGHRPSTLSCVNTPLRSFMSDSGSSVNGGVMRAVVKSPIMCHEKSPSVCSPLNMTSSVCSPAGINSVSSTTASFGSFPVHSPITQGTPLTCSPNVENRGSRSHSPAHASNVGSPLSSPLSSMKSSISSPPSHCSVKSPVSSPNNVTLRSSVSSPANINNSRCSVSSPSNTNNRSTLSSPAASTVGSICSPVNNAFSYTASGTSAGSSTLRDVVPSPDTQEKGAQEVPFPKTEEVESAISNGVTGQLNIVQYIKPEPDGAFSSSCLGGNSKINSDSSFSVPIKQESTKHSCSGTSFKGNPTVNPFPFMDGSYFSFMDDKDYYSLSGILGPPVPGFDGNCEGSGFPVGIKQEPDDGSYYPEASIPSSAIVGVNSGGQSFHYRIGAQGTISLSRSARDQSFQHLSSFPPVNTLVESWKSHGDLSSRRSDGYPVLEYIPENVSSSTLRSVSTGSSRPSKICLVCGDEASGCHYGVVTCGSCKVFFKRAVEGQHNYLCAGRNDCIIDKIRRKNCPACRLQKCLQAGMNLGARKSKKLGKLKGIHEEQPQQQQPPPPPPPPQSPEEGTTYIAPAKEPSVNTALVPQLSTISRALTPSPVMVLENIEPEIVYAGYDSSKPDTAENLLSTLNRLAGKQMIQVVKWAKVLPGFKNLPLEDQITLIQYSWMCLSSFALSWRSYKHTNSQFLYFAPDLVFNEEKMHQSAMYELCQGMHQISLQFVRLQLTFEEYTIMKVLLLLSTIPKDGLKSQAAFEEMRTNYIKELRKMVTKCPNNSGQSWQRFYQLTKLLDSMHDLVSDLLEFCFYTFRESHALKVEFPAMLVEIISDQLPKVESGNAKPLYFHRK", "conditions": "versus other steroid receptors, in words"}, "[2]": {"conditions": "degraded by aminopeptidase A enzymes on red blood cells"}},
  "data": [
    {"compound": "COC(=O)[C@@H]1CC2=CC(=O)CC[C@]2(C)[C@@]23O[C@@H]2C[C@@]2(C)[C@@H](CC[C@@]24CCC(=O)O4)[C@H]13", "note": "[Eplerenone, eplerenone]", "values": [
      {"measurement": "lower affinity for the progestin receptor", "setting": "progestin receptor", "result": 500, "unit": "fold"}
    ]},
    {"compound": "CC(=O)S[C@@H]1CC2=CC(=O)CC[C@]2(C)[C@H]2CC[C@@]3(C)[C@@H](CC[C@@]34CCC(=O)O4)[C@H]12", "note": "[Spironolactone, spironolactone]", "values": [
      {"measurement": "selectivity for the MR", "setting": "[1]", "result": "less selective for the MR"}
    ]},
    {"compound": "angiotensin-2 (DRVYIHPF; Angiotensin-2; UniProt P01019 25-32, looked up) [AngII]", "values": [
      {"measurement": "half-life", "setting": "[2]", "result": 30, "unit": "s"}
    ]}
  ]
}
